PMC5908784, “Extracellular loops 2 and 3 of the calcitonin receptor selectively modify agonist binding and efficacy” (Biochemical Pharmacology, 2018)
Numbering of substitutions follows the chain as printed. Read-outs that look alike come from different tables or passages of the source. Where a SMILES comes first, the peptide text is derived from it. Bridges are numbered along the chain shown (N, C = ends).

Key:
Test in all cases: IP1 accumulation
Assay type in all cases: cell-based
[1] = biological target: T1, hCTR L291A (Homo sapiens, UniProt P30988, L291A); conditions: mean ± S.E.M.; for Emax: IP1 maximal response, SEM
T1 construct: expressed in transfected cells
T1 sequence (P30988 25-474 L291A): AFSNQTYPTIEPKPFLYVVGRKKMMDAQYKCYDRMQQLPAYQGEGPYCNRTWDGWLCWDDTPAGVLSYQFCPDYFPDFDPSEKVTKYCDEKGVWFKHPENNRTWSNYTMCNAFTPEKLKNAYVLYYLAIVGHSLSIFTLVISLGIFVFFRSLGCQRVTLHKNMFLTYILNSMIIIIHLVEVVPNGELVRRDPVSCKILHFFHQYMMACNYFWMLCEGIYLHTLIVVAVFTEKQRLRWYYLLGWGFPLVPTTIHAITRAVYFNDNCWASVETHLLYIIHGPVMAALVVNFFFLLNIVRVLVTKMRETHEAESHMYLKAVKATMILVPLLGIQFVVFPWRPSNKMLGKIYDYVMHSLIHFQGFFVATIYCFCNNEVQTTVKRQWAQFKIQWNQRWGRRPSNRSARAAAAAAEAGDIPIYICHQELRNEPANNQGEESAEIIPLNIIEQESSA
In short: (§1)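 HTRF IP-One readout of IP1 after 60 min ligand stimulation (LiCl present), cells seeded overnight. Normalized to 100 μM ATP max response. EC50/Emax via 3-parameter logistic curve fit.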

[2] = biological target: T2, hCTR M376A (Homo sapiens, UniProt P30988, M376A); conditions: mean ± S.E.M.; for Emax: IP1 maximal response, SEM
T2 construct: c-Myc (N); expressed in transfected cells
T2 sequence (P30988 25-474 M376A): T1 sequence (P30988 25-474 L291A) with A267L, M352A
In short: as §1

[3] = biological target: T3, hCTR WT (Homo sapiens, UniProt P30988); conditions: for Emax: read-out: Emax (% WT), SEM
T3 construct: expressed in transfected cells
T3 sequence (P30988 25-474): T1 sequence (P30988 25-474 L291A) with A267L
In short: as §1

[4] = biological target: T4, hCTR Y299A (Homo sapiens, UniProt P30988, Y299A); conditions: mean ± S.E.M.; for Emax: IP1 maximal response, SEM
T4 construct: c-Myc (N); expressed in transfected cells
T4 sequence (P30988 25-474 Y299A): T1 sequence (P30988 25-474 L291A) with A267L, Y275A
In short: as §1

[5] = biological target: T5, hCTR K366A (Homo sapiens, UniProt P30988, K366A); conditions: mean ± S.E.M.; for Emax: IP1 maximal response, SEM
T5 construct: c-Myc (N); expressed in transfected cells
T5 sequence (P30988 25-474 K366A): T1 sequence (P30988 25-474 L291A) with A267L, K342A
In short: as §1

[6] = IP1, CV1-FlpIn cells, 60 min, LiCl

CC[C@H](C)[C@H](NC(=O)[C@H](C)NC(=O)[C@@H](NC(=O)[C@H](CCC(N)=O)NC(=O)[C@@H]1CCCN1C(=O)[C@H](Cc1ccccc1)NC(=O)[C@@H](NC(=O)[C@H](Cc1c[nH]cn1)NC(=O)[C@H](Cc1ccccc1)NC(=O)[C@H](CCCCN)NC(=O)[C@H](CC(N)=O)NC(=O)[C@H](Cc1ccccc1)NC(=O)[C@H](CC(=O)O)NC(=O)[C@H](CCC(N)=O)NC(=O)[C@@H](NC(=O)[C@H](Cc1ccc(O)cc1)NC(=O)[C@@H](NC(=O)CNC(=O)[C@H](CC(C)C)NC(=O)[C@H](CCSC)NC(=O)[C@@H]1CSSC[C@H](N)C(=O)NCC(=O)N[C@@H](CC(N)=O)C(=O)N[C@@H](CC(C)C)C(=O)N[C@@H](CO)C(=O)N[C@@H]([C@@H](C)O)C(=O)N1)[C@@H](C)O)[C@@H](C)O)[C@@H](C)O)[C@@H](C)O)C(=O)NCC(=O)N[C@H](C(=O)NCC(=O)N[C@@H](C)C(=O)N1CCC[C@H]1C(N)=O)C(C)C [hCT]
Emax [1]: 71 ± 16%
Emax [2]: 52 ± 5%
Emax [3]: 100 ± 3%
Emax [4]: 34 ± 5%
Emax [5]: 121 ± 6%

CSCC[C@H](NC(=O)CNC(=O)[C@H](CO)NC(=O)[C@H](Cc1ccccc1)NC(=O)[C@H](CCCNC(=N)N)NC(=O)[C@H](Cc1c[nH]cn1)NC(=O)[C@H](Cc1ccccc1)NC(=O)[C@H](CC(N)=O)NC(=O)[C@H](CC(N)=O)NC(=O)[C@H](CC(C)C)NC(=O)[C@H](CC(N)=O)NC(=O)[C@H](CCCNC(=N)N)NC(=O)[C@H](Cc1c[nH]c2ccccc12)NC(=O)[C@H](Cc1ccc(O)cc1)NC(=O)[C@H](C)NC(=O)[C@H](CO)NC(=O)[C@H](CC(C)C)NC(=O)[C@@H](NC(=O)[C@@H]1CSSC[C@H](N)C(=O)N[C@@H](CO)C(=O)N[C@@H](CC(N)=O)C(=O)N[C@@H](CC(C)C)C(=O)N[C@@H](CO)C(=O)N[C@@H]([C@@H](C)O)C(=O)N1)C(C)C)C(=O)NCC(=O)N[C@@H](Cc1ccccc1)C(=O)NCC(=O)N1CCC[C@H]1C(=O)N[C@@H](CCC(=O)O)C(=O)N[C@H](C(=O)N1CCC[C@H]1C(N)=O)[C@@H](C)O [pCT] (H-CSNLSTCVLSAYWRNLNNFHRFSGMGFGPETP-NH2; disulfide 1-7)
EC50 [1, 6]: 1.62 nM
Emax [1]: 67 ± 6%
EC50 [2, 6]: 5.62 nM
Emax [2]: 47 ± 4%
EC50 ([3]; WT, IP1, CV1-FlpIn cells, 60 min, LiCl, mean ± S.E.M.): 1.38 nM
Emax ([3]; WT, IP1 maximal response, mean ± S.E.M.): 100 ± 3%
EC50 [4, 6]: 0.417 nM
Emax [4]: 52 ± 3%
EC50 [5, 6]: 1.48 nM
Emax [5]: 91 ± 6%

CC(C)C[C@H](NC(=O)[C@H](CCCCN)NC(=O)CNC(=O)[C@H](CC(C)C)NC(=O)[C@@H](NC(=O)[C@@H]1CSSC[C@H](N)C(=O)N[C@@H](CO)C(=O)N[C@@H](CC(N)=O)C(=O)N[C@@H](CC(C)C)C(=O)N[C@@H](CO)C(=O)N[C@@H]([C@@H](C)O)C(=O)N1)C(C)C)C(=O)N[C@@H](CO)C(=O)N[C@@H](CCC(N)=O)C(=O)N[C@@H](CCC(=O)O)C(=O)N[C@@H](CC(C)C)C(=O)N[C@@H](Cc1c[nH]cn1)C(=O)N[C@@H](CCCCN)C(=O)N[C@@H](CC(C)C)C(=O)N[C@@H](CCC(N)=O)C(=O)N[C@H](C(=O)N[C@@H](Cc1ccc(O)cc1)C(=O)N1CCC[C@H]1C(=O)N[C@@H](CCCNC(=N)N)C(=O)N[C@H](C(=O)N[C@@H](CC(N)=O)C(=O)N[C@H](C(=O)NCC(=O)N[C@@H](CO)C(=O)NCC(=O)N[C@H](C(=O)N1CCC[C@H]1C(N)=O)[C@@H](C)O)[C@@H](C)O)[C@@H](C)O)[C@@H](C)O [sCT]
Emax [1]: 85 ± 4%
Emax [2]: 95 ± 4%
Emax [3]: 100 ± 3%
Emax [4]: 54 ± 5%
Emax [5]: 93 ± 5%
